Two molecules from patent US7285282B2, “Mucin peptide with immunoenhancing properties” (University of Miami, priority 2001, dated 2007) can be followed below.

Where no end group is shown, it is not given here.

In one data set the test system is DA-3/sec targets. Briefly: Effect of perforin inhibitor or anti-Fas antibody on killing by DA-3/sec primed splenocytes. It counts as cell-based, mice. The following applies: FIG. 14, FIG. 15.
The next data set relates to YAC-1. In words: NK cell assay, splenocytes pretreated with IEP, YAC-1 targets. It counts as cell-based, BALB/c mice. To be noted: 10 μg IEP, 30-45 minutes pretreatment, 4-hour assay, FIG. 18. An excerpt: As mentioned above, there is a unique 11 amino acid peptide present on the C-terminus of the MUC1/sec protein, but not on the MUC1/TM protein. […] We investigated the possible effects of the peptide on the cytotoxicity reaction. We tested it on yet another tumor model, i.e. the D1-DMBA-3 mammary tumor bearing mice. The DA-3 cell line was originally derived from this tumor, which is routinely passaged in vivo in our laboratory in the syngeneic BALB/c mice. […] The ability of this peptide to stimulate immune cells in a NK cell assay was tested. […] Therefore, to test for immunomodulatory activity of the immunoenhancing peptide (IEP), BALB/c splenocytes were pretreated for 30-45 minutes with 10 μg IEP and subsequently, chromium-labeled YAC-1 or EL-4 targets were added in a 4-hour assay as previously described (11).

Another data set deals with DA-3/sec tumor targets. Briefly: Splenocyte cytotoxicity against DA-3/sec targets after in vitro MUC1/sec peptide. It counts as cell-based. The following applies: peptide added in vitro for 5 days to splenocytes of normal and D1-DMBA-3 tumor bearing mice, FIG. 17.
Data set [1] can be described thus: Toxicity in animals injected with the peptide. The following applies: in vivo.

As to `C/C=C/[C@H]1O[C@@](O)([C@@H](C)[C@H](O)[C@H](C)[C@H]2OC(=O)/C(OC)=C/C(C)=C/[C@@H](C)[C@@H](O)[C@@H](CC)[C@@H](O)[C@H](C)C/C(C)=C/C=C/[C@@H]2OC)C[C@@H](O[C@H]2C[C@@H](O)[C@H](OC(N)=O)[C@@H](C)O2)[C@@H]1C` [Concanamycin A], the “Effect on killing of DA-3/sec targets by primed splenocytes” value with DA-3/sec targets was “effectively blocked killing of DA-3/sec targets in a dose-dependent manner”.
For the molecule VSIGLSFPMLP [IEP], the “Cytotoxicity of normal splenocytes against YAC-1” value in the data set with YAC-1 is “elevation of cytotoxic levels”. The “Cytotoxicity against DA-3/sec tumor targets” value with DA-3/sec tumor targets is “significant levels of cytotoxicity”. Moreover, in data set [1], the “Toxicity in injected animals” value is listed as “No toxicity has been detected”.
